Source: patent EP4790046A1, “NOVEL COMPOUND DERIVED FROM MYRISTICA FRAGRANS, AND ANTICANCER COMPOSITION COMPRISING SAME” (Korea Institute of Science and Technology, priority 2023, dated 2025)
Where two headings read alike, the source gives them in different places.

Assays:
SNU201 = test: alamarBlue cell viability (survival rate), SNU201; assay type: cell-based; conditions: SNU201 (glioblastoma), compound 10 µM, 48 hours
Description: (§1) A p-value < 0.05 was considered statistically significant.

SNU-719 = test: alamarBlue cell viability (survival rate, IC50), SNU-719; assay type: cell-based
Description: as §1

SW48 cell line = test: Cell cycle distribution (PI/RNase staining, flow cytometry), SW48; assay type: cell-based
Description: (§2) Cell cycle distribution was analyzed by DNA staining using FxCycle PI/RNase Staining Solution (Invitrogen, USA). The 23132/87 and SW48 cell lines was seeded at densities of 5 × 10^5 and 7 × 10^5cells/well, respectively, in 6-well plates. After 24 hours of culture, cells were starved overnight in serum-free medium. […] Cells were then harvested, fixed with 70% ethanol, and stained with PI/RNase solution. Samples were analyzed by flow cytometry (BD FACSVerse Cell Analyzer and FlowJo software, BD Biosciences, Franklin Lakes, NJ, USA) based on 10,000 events.
(§3) Student's t-test was performed for statistical analysis between the 2 concentrations of the same compound.

AGS = test: alamarBlue cell viability (survival rate, IC50), AGS; assay type: cell-based; conditions: AGS (gastric cancer)
Description: as §1

HepG2 = test: alamarBlue cell viability (survival rate), HepG2; assay type: cell-based; conditions: HepG2 (liver cancer), compound 10 µM, 48 hours
Description: as §1

SW48 cells = test: Xenograft mouse model, tumor volume, SW48 (colorectal cancer); assay type: in vivo, BALB/c/nu/nu mice; conditions: 10 mg/kg intraperitoneal on alternate days, to day 27
Description: (§4) Tumor volume and body weight were measured twice weekly.

caspase-3 and -7 [1] = test: Caspase-3/7 activity assay (Caspase-Glo 3/7), SW48 cells; assay type: cell-based; conditions: for Caspase-3/7 activity: RLU relative to DMSO; for caspase-3/7 signal higher than DMSO: SW48
Description: (§5) Apoptosis can be activated and progress through either the intrinsic or extrinsic pathway, but caspase-3, the executioner caspase, is involved in most cases. […] Since this enzyme activity is transient, analysis was performed at two time points: 6 hours and 12 hours post-treatment.
(§6) Specifically, the Caspase-3/7 activity assay was performed with slight modifications to the manufacturer's protocol (Promega, USA). Briefly, cells were seeded at a density of 5 × 10^3 cells/well in a 96-well plate, cultured for 24 hours, and then treated with the compound at an appropriate concentration for 6 or 12 hours. After treatment, Caspase-Glo 3/7 reagent was added in equal volumes to the treated samples. The plate was then shaken and incubated at room temperature for 2 hours. Enzyme activity was determined by measuring relative light units (RLU) using a Varioskan LUX Multimode Microplate Reader (Thermo Fisher Scientific, USA).

caspase-3 and -7 [2] = test: Caspase-3/7 activity assay (Caspase-Glo 3/7), 23132/87 cells; assay type: cell-based; conditions: for Caspase-3/7 activity: RLU relative to DMSO; for caspase-3/7 RLU increase over DMSO: 23132/87
Description: as §5, §6

SNU466 = test: alamarBlue cell viability (survival rate), SNU466; assay type: cell-based; conditions: SNU466 (glioblastoma), compound 10 µM, 48 hours
Description: as §1

SNU-81 = test: alamarBlue cell viability (survival rate, IC50), SNU-81; assay type: cell-based
Description: as §1

23132/87 cells = test: Xenograft mouse model, tumor volume, 23132/87 (gastric cancer); assay type: in vivo, BALB/c/nu/nu mice; conditions: 10 mg/kg intraperitoneal on alternate days, to day 27
Description: as §4

MiaPaCa-2 = test: alamarBlue cell viability (survival rate), MiaPaCa-2; assay type: cell-based; conditions: MiaPaCa-2 (pancreatic cancer), compound 10 µM, 48 hours
Description: as §1

SNU-C5 = test: alamarBlue cell viability (survival rate, IC50), SNU-C5; assay type: cell-based
Description: as §1

23132/87 cell line = test: Cell cycle distribution (PI/RNase staining, flow cytometry), 23132/87; assay type: cell-based; conditions: 48 hours
Description: as §2, §3

SW48 = test: alamarBlue cell viability (survival rate, IC50), SW48; assay type: cell-based; conditions: SW48 (colorectal cancer)
Description: as §1

[3] = mouse, in vivo, ip, 10 mg/kg
Description: Female BALB/c/nu/nu mice (5 weeks old) were used in the in vivo model.
As shown in the schematic diagram of Figure 16a, 23132/87 and SW48 cells were injected subcutaneously into mice at densities of 5 × 10^6 cells/mouse and 3 × 10^6 cells/mouse, respectively. […] Tumor volume and body weight were measured twice weekly. On day 27, mice were sacrificed, and major organs (liver, spleen, kidney) and tumor tissue were collected and stored for further analysis. Tumor volume was calculated using the following formula: Volume (mm^3) = (Length) × (Width)^2 × 1/2.

23132/87 = test: alamarBlue cell viability (survival rate, IC50), 23132/87; assay type: cell-based; conditions: 23132/87 (gastric cancer)
Description: as §1

## C=CCc1cc(OC)c(O[C@H](C)[C@H](c2ccc(O)c(OC)c2)c2ccc(O)c(C(=O)CCCCCCCCc3ccc(O)cc3)c2O)c(OC)c1 [Compound 3, Myricone C]
SNU201
  Cancer cell line survival rate (%): 1.17%
SNU-719; SNU719 (gastric cancer), 2.5-40 µM, positive control = doxorubicin
  IC50: 2.93 µM
SNU-719; SNU-719 (gastric cancer), compound 10 µM, 48 hours
  Cancer cell line survival rate (%): 4.30%
SW48 cell line; SW48, 5 µM, 48 hours
  Cell cycle distribution, G1: 56.63%
  Cell cycle distribution, G2/M: 8.91%
  Cell cycle distribution, S: 23.00%
  Cell cycle distribution, Sub G1: 9.65%
SW48 cell line; SW48, 10 µM, 48 hours
  Cell cycle distribution, G1: 50.93%
  Cell cycle distribution, G2/M: 6.13%
  Cell cycle distribution, S: 19.30%
  Cell cycle distribution, Sub G1: 24.17%
  sub-G1 proportion increase compared to the DMSO control: 7%
SW48 cell line; SW48, 5 µM
  G2 phase: 8.91% ± 0.24%
  sub-G1 phase ratio: 9.65% ± 1.02%
SW48 cell line; SW48, 10 µM
  G2 phase: 6.13% ± 0.47%
  sub-G1 phase ratio: 24.17% ± 0.98%
SW48 cell line; SW48, 10 µM, 48 hours, only G2/M decrease statistically significant
  proportions of the G1, S, and G2/M phases: slightly reduced
AGS; compound 10 µM, 48 hours
  Cancer cell line survival rate (%): 0.16%
AGS; Homo sapiens, 2.5-40 µM, positive control = doxorubicin
  IC50: 3.62 µM
HepG2
  Cancer cell line survival rate (%): 1.60%
SW48 cells
  tumor growth: suppressed compared to the control group
caspase-3 and -7 [1]; SW48, 5 µM, 6 h
  Caspase-3/7 activity: 1.10 fold
caspase-3 and -7 [1]; SW48, 5 µM, 12 h
  Caspase-3/7 activity: 2.37 fold
caspase-3 and -7 [1]; SW48, 10 µM, 6 h
  Caspase-3/7 activity: 1.89 fold
caspase-3 and -7 [1]; SW48, 10 µM, 12 h
  Caspase-3/7 activity: 2.02 fold
caspase-3 and -7 [1]; high concentration (10 µM), 6 hours
  caspase-3/7 signal higher than DMSO: 2.37 fold
caspase-3 and -7 [1]; low concentration (5 µM), 12 hours
  caspase-3/7 signal higher than DMSO: 1.89 fold
caspase-3 and -7 [2]; 23132/87, 5 µM, 6 h
  Caspase-3/7 activity: 0.58 fold
caspase-3 and -7 [2]; 23132/87, 5 µM, 12 h
  Caspase-3/7 activity: 1.74 fold
caspase-3 and -7 [2]; 23132/87, 10 µM, 6 h
  Caspase-3/7 activity: 1.81 fold
caspase-3 and -7 [2]; 23132/87, 10 µM, 12 h
  Caspase-3/7 activity: 1.20 fold
caspase-3 and -7 [2]; 5 µM, 12 hours
  caspase-3/7 RLU increase over DMSO: 1.74 fold
caspase-3 and -7 [2]; 10 µM, 6 hours
  caspase-3/7 RLU increase over DMSO: 1.81 fold
SNU466
  Cancer cell line survival rate (%): 1.91%
SNU-81; SNU81 (colorectal cancer), 2.5-40 µM, positive control = oxaliplatin, read-out: IC50
  IC50: 9.84 µM
SNU-81; SNU81 cells, compound 2.5-40 µM, read-out: IC50 values
  IC50: 9.84 µM
SNU-81; SNU-81 (colorectal cancer), compound 10 µM, 48 hours
  Cancer cell line survival rate (%): 47.08%
23132/87 cells
  tumor volume: smallest tumor volume was observed starting on day 13
MiaPaCa-2
  Cancer cell line survival rate (%): 2.53%
SNU-C5; SNU-C5 (colorectal cancer), compound 10 µM, 48 hours
  Cancer cell line survival rate (%): 2.11%
SNU-C5; SNUC5 (colorectal cancer), 2.5-40 µM, positive control = oxaliplatin, read-out: IC50
  IC50: 2.54 µM
SNU-C5; SNUC5 cells, compound 2.5-40 µM, read-out: IC50 values
  IC50: 2.54 µM
23132/87 cell line; 23132/87, 5 µM
  Cell cycle distribution, G1: 63.00%
  Cell cycle distribution, G2/M: 6.79%
  Cell cycle distribution, S: 21.23%
  Cell cycle distribution, Sub G1: 9.15%
23132/87 cell line; 23132/87, 10 µM
  Cell cycle distribution, G1: 68.93%
  Cell cycle distribution, G2/M: 6.19%
  Cell cycle distribution, S: 14.40%
  Cell cycle distribution, Sub G1: 10.45%
  G1 phase increase compared to DMSO: about 10%
  G2/M phase decrease compared to DMSO: about 4%
SW48; Homo sapiens, 2.5-40 µM, positive control = oxaliplatin
  IC50: 2.55 µM
SW48; compound 10 µM, 48 hours
  Cancer cell line survival rate (%): 0.01%
[3]
  body weight and the weights of major organs (liver, spleen, kidneys): remained stable
23132/87; 2.5-40 µM, positive control = doxorubicin
  IC50: 2.07 µM
23132/87; compound 10 µM, 48 hours
  Cancer cell line survival rate (%): 1.77%
